The test system of the first test is platelet aggregation (dog platelet-rich plasma). Kind of test: In-vitro platelet aggregation in PRP (ADP-induced, dog). Conditions: Canis lupus familiaris, ADP 50 um final concentration, at 10^-5 M, read-out: Dog PRP % Inh. The format is cell-based. As to the method:
IN-VITRO PLATELET AGGREGATION IN PRP
Healthy male or female dogs were fasted for 8 hours prior to drawing blood; then 30 ml whole blood was collected using a butterfly needle and 30 cc plastic syringe with 3 ml of 0.129M buffered sodium citrate (3.8%). The syringe was rotated carefully as blood was drawn to mix the citrate. Platelet-rich plasma (PRP) was prepared by centrifugation at 975×g for 3.17 minutes at room temperature allowing the centrifuge to coast to a stop without braking. The PRP was removed from the blood with a plastic pipette and placed in a plastic capped, 50 mL Corning conical sterile centrifuge tube which was held at room temperature. Platelet poor plasma (PPP) was prepared by centrifuging the remaining blood at 2000×g for 15 minutes at room temperature allowing the centrifuge to coast to a stop without braking. The PRP was adjusted with PPP to a count of 2-3×10^8 platelets per mL. 400 uL of the PRP preparation and 50 uL of the compounds solution to be tested or saline were preincubated for […] at 37° C. in a […].). 50 uL of adenosine 5' diphosphate (ADP) (50 um final concentration) was added to the cuvettes and the aggregation was monitored for 1 minute. All compounds are tested in duplicate. Results are calculated as follows: Percent of control=[(maximal OD minus initial OD of compound) divided by (maximal OD minus initial OD of control saline)]×100. The % inhibition=100-(percent of control).
The compounds tested and their median inhibitory concentrations (IC50) are recorded in Table I. IC50 's (dosage at which 50% of platelet aggregation is inhibited) were calculated by linear regression of the dose response curve.
In the case of `CC(C)[C@H](NC(=O)Nc1ccc(C(=N)N)cc1)C(=O)NC(CC(=O)O)c1cccnc1` (single isomer, unassigned) [10 (isomer 1)], the inhibition at 10 µM worked out at 9%. Consider `CN=C(NCCC(=O)NCCC(=O)O)Nc1ccc(C(=N)N)cc1` [Example 6, β-[[3-[[[4-(aminoiminomethyl)phenyl]amino]N-methylcarbonylimide]aminopropanoyl]amino]propanoic acid], for which the inhibition at 10 µM was found to be 5%.

The same test, now with this note: Canis lupus familiaris, ADP 50 um final concentration, preincubation at 37° C., aggregation monitored for 1 minute.
Compound `C[C@H](CNC(=O)Nc1ccc(C(=N)N)cc1)C(=O)NC(CC(=O)O)c1ccc2c(c1)OCO2` (single isomer, unassigned) [14 (isomer 1)] returned a half-maximal inhibitory concentration (IC50) of 2000 nM. On to `N=C(N)c1ccc(NC(=O)NCCC(=O)NC(CC(=O)O)c2cccnc2)cc1` (stereo not shown) [Example 2], for which the midpoint of inhibition, the IC50, lay at 330 nM. Consider `N=C(N)c1ccc(NC(=O)NCC(=O)NC(CC(=O)O)c2cccnc2)cc1` (stereo not shown) [Example 4], for which the midpoint of inhibition, the IC50, lay at 260 nM. The compound `N=C(N)c1ccc(NC(=S)NCCC(=O)NCCC(=O)O)cc1` [Example 8, β-[[3-[[[4(aminoiminomethyl)phenyl]amino]-thiocarbonyl]aminopropanoyl]amino]propanoic acid] showed an IC50 of 4900 nM. For `N=C(N)c1ccc(NC(=O)NC(CC(=O)NCCC(=O)O)c2cccnc2)cc1` (stereo not drawn) [Example 12, β-[[3-[[[[4-(aminoiminomethyl)phenyl]amino]-carbonyl]amino](3-pyridine)propanoyl]amino]-propanoic acid], the half-maximal inhibitory concentration (IC50) came to 6000 nM.

Usually IC50 stands for the point on the concentration scale where inhibition reaches its midpoint.

Source of the values: patent US5624956A, “Urea derivatives useful as platelet aggregation inhibitors” (The Monsanto Company, priority 1995, dated 1997).
